Results: patent US8871735B2, “Methods and compositions for providing cardiac protection” (University of Medicine and Dentistry of New Jersey, priority 2008, dated 2014)
“Also recorded” adds a separate entry of the source.

Experiments:
[1] = tested on: Yorkshire pigs, CAO / CAR; experiment: Pig ischemia and reperfusion model; assay type: in vivo
Experimental: Yorkshire pigs were under anesthesia and instrumented in accordance with established procedures. After 4 days of recovery, the pigs were subjected to ischemia and reperfusion also in accordance with established procedures. At 3 hours of coronary artery reperfusion, the animals were sacrificed and the infarct size was measures with TTC staining.

AC5 = AC5 (Mus musculus, UniProt P84309); experiment: Forskolin-stimulated cAMP production in heart membrane preparations from AC5Tg; settings: forskolin 50 μM
AC5, sequence (P84309 whole entry): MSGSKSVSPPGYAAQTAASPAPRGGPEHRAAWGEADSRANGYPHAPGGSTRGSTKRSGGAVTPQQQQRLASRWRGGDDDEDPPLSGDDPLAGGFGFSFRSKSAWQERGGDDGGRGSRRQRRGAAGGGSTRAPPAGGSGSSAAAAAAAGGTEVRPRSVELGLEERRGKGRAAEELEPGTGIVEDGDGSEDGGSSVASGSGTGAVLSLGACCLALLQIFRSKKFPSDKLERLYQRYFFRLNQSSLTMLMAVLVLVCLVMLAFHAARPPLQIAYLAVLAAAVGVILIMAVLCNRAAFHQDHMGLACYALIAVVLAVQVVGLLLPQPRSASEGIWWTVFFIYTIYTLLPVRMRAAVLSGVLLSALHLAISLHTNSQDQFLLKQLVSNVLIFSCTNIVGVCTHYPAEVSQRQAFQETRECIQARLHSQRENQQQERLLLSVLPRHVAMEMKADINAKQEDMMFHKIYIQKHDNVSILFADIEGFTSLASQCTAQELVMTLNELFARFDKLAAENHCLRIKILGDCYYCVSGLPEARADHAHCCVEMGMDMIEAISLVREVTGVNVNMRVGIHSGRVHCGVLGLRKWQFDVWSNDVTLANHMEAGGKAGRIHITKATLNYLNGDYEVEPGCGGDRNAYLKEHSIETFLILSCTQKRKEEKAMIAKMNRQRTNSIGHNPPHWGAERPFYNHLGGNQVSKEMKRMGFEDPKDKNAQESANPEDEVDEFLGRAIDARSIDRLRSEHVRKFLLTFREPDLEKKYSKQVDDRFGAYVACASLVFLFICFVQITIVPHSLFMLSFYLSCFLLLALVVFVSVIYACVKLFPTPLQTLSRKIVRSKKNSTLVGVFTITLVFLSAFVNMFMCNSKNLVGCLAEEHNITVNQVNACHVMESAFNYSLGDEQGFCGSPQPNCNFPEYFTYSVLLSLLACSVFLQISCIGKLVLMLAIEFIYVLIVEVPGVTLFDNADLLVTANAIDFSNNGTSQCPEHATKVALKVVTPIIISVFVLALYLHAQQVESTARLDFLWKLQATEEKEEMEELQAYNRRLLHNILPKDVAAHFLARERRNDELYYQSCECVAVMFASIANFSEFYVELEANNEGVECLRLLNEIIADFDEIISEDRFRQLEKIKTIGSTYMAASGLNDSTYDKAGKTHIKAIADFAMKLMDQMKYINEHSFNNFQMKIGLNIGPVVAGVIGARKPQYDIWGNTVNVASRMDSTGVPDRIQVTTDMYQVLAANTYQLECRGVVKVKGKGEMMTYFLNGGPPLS
Experimental: (§1) Hearts and striatum were dissected from the mice and membrane preparations were made as previously described. This crude membrane preparation was used in the AC assay. AC activity was measured by a modification of the method of Salomon et al. as previously described. […] Double-reciprocal plots were examined as previously described.

type 5 AC = type 5 AC (Homo sapiens, UniProt O95622); experiment: Double-reciprocal plots of type 5 AC catalytic activity against ATP
type 5 AC, sequence (O95622 whole entry): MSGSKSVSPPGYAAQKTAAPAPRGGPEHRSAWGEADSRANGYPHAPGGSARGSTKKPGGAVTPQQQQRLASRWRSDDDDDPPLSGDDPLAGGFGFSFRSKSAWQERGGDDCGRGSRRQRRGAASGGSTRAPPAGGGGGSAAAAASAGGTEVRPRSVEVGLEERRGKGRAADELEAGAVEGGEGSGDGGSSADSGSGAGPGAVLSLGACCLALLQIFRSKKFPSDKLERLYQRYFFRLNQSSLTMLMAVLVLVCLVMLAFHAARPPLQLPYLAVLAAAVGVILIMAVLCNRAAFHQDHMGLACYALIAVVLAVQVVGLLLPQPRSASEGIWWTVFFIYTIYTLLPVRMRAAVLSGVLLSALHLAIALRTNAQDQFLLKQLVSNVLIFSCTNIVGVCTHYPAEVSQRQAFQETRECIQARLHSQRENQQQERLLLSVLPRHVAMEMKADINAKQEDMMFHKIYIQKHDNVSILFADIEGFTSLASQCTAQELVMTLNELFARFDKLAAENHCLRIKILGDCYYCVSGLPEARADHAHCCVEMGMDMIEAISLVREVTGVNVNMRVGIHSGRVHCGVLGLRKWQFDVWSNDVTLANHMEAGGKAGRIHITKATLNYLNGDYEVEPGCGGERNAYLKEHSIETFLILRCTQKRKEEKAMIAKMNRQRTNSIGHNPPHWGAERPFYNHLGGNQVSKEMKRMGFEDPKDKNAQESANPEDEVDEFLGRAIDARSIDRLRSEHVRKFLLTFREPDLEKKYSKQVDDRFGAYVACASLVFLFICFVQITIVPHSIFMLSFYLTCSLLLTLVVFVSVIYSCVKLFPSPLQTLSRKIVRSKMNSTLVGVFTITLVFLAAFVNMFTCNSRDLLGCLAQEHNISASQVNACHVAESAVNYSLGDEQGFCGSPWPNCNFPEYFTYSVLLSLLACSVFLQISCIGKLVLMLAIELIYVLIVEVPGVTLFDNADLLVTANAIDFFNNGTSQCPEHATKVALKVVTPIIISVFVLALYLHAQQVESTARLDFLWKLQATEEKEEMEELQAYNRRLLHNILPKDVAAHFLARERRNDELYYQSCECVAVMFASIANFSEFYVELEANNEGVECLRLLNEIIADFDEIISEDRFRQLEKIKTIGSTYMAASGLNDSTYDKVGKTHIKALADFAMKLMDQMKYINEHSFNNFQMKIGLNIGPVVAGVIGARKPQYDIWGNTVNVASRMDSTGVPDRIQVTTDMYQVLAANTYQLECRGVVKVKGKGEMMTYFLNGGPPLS
Experimental: as §1

[2] = tested on: mice after coronary occlusion; experiment: Coronary occlusion (post-MI) survival and echocardiography; assay type: in vivo, mouse
Experimental: Ara-Ade (50 mg/kg/day) was chronically infused with mini-osmotic pumps implanted subcutaneously 2-3 days before the coronary occlusion. […] (b) Echocardiography was performed at 16 days after coronary occlusion.

[3] = administration of 15 mg/kg/day; read-out: plasma Cmax; cited from earlier work
[4] = tested on: C57Bl/6 mice motor function; experiment: Rotarod performance test and pole test; assay type: in vivo, mouse; settings: mouse
Experimental: In C57Bl/6 mice, Ara-Ade was chronically infused with an osmotic mini-pump at the indicated doses for 5 days. a) Each mouse was placed on a rod subjected to evaluate Rotarod performance. Mice were left for 1 min on the rod for habituation. The rod rotated gradually increasing from 4 to 40 rpm over the course of 5 min, and the time that mice could stay without failing was recorded. Five trials were conducted for each individual 10-25 min apart. As a positive control, 1-methyl 4-phenyl 1,2,3,6-tetrahydropyridine (MPTP) was intraperitoneally injected for the indicated dose for 5 days. *, p<0.01 relative to vehicle. #, p<0.05 relative to vehicle. n=6-7. b) To evaluate bradykinesia, a pole test was performed. Mice were placed head upward on the top of a rough surfaced pole that was wrapped with gauze to prevent slipping. The time until the mouse turned completely downward (open bars, TTURN) and the time until it climbed down to the floor (closed bars, TLA) were measured.
Four days after the implantation, Rotarod performance test and pole test were examined as previously described. For MPTP injection (1-methyl 4-phenyl 1,2,3,6-tetrahydropyridine), mice were injected intraperitoneally (i.p.) with 0.1 mL of PBS or MPTP dissolved in PBS at 24-hour intervals for 5 days. The daily dose of MPTP was 30 mg/kg. […]

## Nc1ncnc2c1ncn2[C@@H]1O[C@H](CO)[C@@H](O)[C@@H]1O [Ara-Ade, 9-β-D-arabinofuranosyladenine]
[1]; delivered after CAR
  infarct size in chronically instrumented conscious pigs: reduced infarct size
[1]; pig, in vivo
  reactive hyperemia in pigs: inhibited reactive hyperemia
AC5
  inhibition of cAMP production, heart membrane preparation from AC5Tg: inhibited cAMP production
Type 5 AC
  mode of inhibition with respect to ATP: non-competitive; also recorded: un-competitive or non-competitive
[2]; 16 days after coronary occlusion
  LVEF after MI: prevented decrease in LVEF
[2]; Ara-Ade 50 mg/kg/day from 2-3 days before occlusion, chi-square at 16 days
  survival rate after coronary occlusion: significant increase in survival rate
[3]
  Cmax: ~10 µM
[4]
  BBB-permeability (concluded from motor tests): little BBB-permeability
